In one experiment the test system is human primary monocytes. As to the kind of experiment: CSF-1-induced monocyte differentiation into macrophages (flow cytometry, CD71/CD163 and CD16/CD163 double positive cells). It is filed as cell-based. The source says:
FIG. 1. […] (A) Macrophagic differentiation of monocytes from 3 different healthy donors was examined by 3-color flow cytometric analysis. The results are expressed as percentage of CD71/CD163 or CD16/CD163 double positive cells and represent the mean±SD of 3 independent experiments performed in duplicate. (B) Cell death from 3 different healthy donors was examined by flow cytometry analysis. The results are expressed as percentage of AnnexinV/DAPI double positive cells and represent the mean±SD of 3 independent experiments performed in duplicate. n.s. denotes not statistically significant according to a paired student t test. *P<0.05, **P<0.01, ***P<0.001 according to a paired student t test (versus d2).
FIG. 2. […] Macrophagic differentiation of monocytes from 3 different healthy donors was examined by 3-color flow cytometric analysis. The results are expressed as percentage of CD71/CD163 or CD16/CD163 double positive cells and represent the mean±SD of 3 independent experiments performed in duplicate. n.s. denotes not statistically significant according to a paired student t test. *P<0.05, **P<0.01, ***P<0.001 according to a paired student t test (versus d2).
Human peripheral […] were obtained from healthy donors with informed consent following the Declaration of Helsinki according to recommendations of an independent scientific review board. The project has been validated by The Etablissement Francais du Sang, the French national agency for blood collection (protocol N°ALM/PLER/FO/001). Blood samples were collected using ethylene diamine tetraacetic acid-containing tubes. Mononucleated cells were first isolated using Ficoll Hypaque (Eurobio, CMSMSL0101). Then, we used the autoMACS® Pro Separator (Miltenyi, France) to perform cell enrichment. An initial positive selection, which included antibody targeting CD14, was used for monocyte enrichment (Miltenyi, 130-050-201). Purified monocytes from human were grown in RPMI 1640 medium with glutamax-I (Life Technologies, 61870044) supplemented with 10% (vol/vol) foetal bovine serum (Life Technologies). Macrophage differentiation was induced by adding into the culture medium 100 ng/mL CSF-1 and was visualized using standard optics (20x/0.35 Ph1) equipped with an AxioCam ERc camera (Zeiss, France). Phase images of the cultures were recorded with the Zen 2 software (Zeiss).
To analyze the macrophagic differentiation of monocytes, the cells were washed with ice-cold phosphate buffered saline (PBS, Life Technologies, 14190169), incubated at 4° C. for 10 min in PBS/bovine serum albumin (BSA 0.5%, Dutscher, 871002) with anti-CD16, anti-CD71 and anti-CD163 or isotype controls (Miltenyi and BD Biosciences, catalog numbers were 130-113-396, 130-097-628 and 551374). Finally, the cells were washed and fixed in 2% paraformaldehyde (EMS, 15710). To perform macrophage polarization, purified monocytes were plated at 0.3×10^6 per mL in RPMI 1640 medium with glutamax-I supplemented with 10% (vol/vol) fetal bovine serum plus CSF-1 for 5+2 days to differentiate into M0 macrophages. 20 ng/mL IL-4 (Miltenyi, 130-094-117) was added after 5 days of differentiation for two days to polarize into M2-macrophages. […] Fluorescence was measured with a MACSQuant® Analyzer (Miltenyi, Paris, France). […] Fluorescence was measured with a MACSQuant® Analyzer (Miltenyi, Paris, France). […]
(In general: Flow cytometry measures light scatter and fluorescence of single cells or particles in a stream.)

Experiment [1] has as its system human freshly isolated monocytes. As to the kind of experiment: Spontaneous apoptosis of untreated monocytes cultured without CSF-1 (Annexin V staining). To be noted: 24 h in culture without CSF-1. The class given is cell-based.
In another experiment the target is T1, caspase 3 (Homo sapiens, UniProt P42574).
T1 sequence (P42574 29-175 limits assumed): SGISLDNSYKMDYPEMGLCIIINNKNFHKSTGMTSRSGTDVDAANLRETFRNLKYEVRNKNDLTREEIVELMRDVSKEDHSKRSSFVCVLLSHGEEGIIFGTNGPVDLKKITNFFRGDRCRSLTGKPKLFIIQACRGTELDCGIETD
T1 sequence (P42574 176-277 limits assumed): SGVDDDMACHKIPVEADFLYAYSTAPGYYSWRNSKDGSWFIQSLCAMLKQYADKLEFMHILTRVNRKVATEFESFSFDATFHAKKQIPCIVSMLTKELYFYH
As to the kind of experiment: Recombinant caspase-3 activity in vitro (Ac-DEVD-AMC substrate). More on the design: using active recombinant proteins of caspase-8 and caspase-3; purchased Enzo life sciences ALX-201-059. The conditions noted are these: recombinant caspase-3, Ac-DEVD-AMC. The class given is biochemical. An excerpt: FIG. 4. […] (A) Measures of caspase-8 activity (IETD-AMC). IETD-CHO treatment is used as positive control in the in vitro assay. The results are expressed as A.U./min and represent the mean of 3 independent experiments realized in duplicate (B) Measures of caspase-3 activity (DEVD-AMC). DEVD-CHO is used as positive control in the in vitro assay. The results are expressed as A.U./min and represent the mean of 3 independent experiments realized in duplicate. Human CSF-1 was purchased from Miltenyi (130-096-493). […] Mouse caspase-8 was from R&D Systems (AF705). HRP-conjugated rabbit anti-goat was purchased from Dako ([…]) and HRP-conjugated goat anti-rabbit was from Cell Signaling (5127). Active recombinant caspase-8 (ALX-201-062) and -3 (ALX-201-059) were from Enzo life sciences. […] Each assay (in triplicate) was performed with 10 μg of protein prepared from control or stimulated cells. […] Enzyme activities were expressed in arbitrary units (A.U.) per min and per mg of proteins. The same protocol was used with 0.25 units of active recombinant caspase-8 (Enzo, ALX-201-062) or -3 (Enzo, ALX-201-059) in each triplicate.

The structures appear in SMILES notation.

As a reminder, the IC50 is the concentration needed to halve the response being measured. In the case of `C[C@H](NC(=O)C(=O)Nc1ccccc1C(C)(C)C)C(=O)N[C@@H](CC(=O)O)C(=O)COc1c(F)c(F)cc(F)c1F` [Emricasan, (S)-3-((S)-2-(2-((2-(tert-Butyl)phenyl)amino)-2-oxoacetamido)propanamido)-4-oxo-5-(2,3,5,6-tetrafluorophenoxy)pentanoic acid], the “concentrations with strong inhibitory effect on macrophagic differentiation” value with human primary monocytes (CSF-1 2 days, Emricasan added at day 0, three different donors) was in the range of 1 to 2 µM. Moreover, the “concentration range that efficiently inhibited monocyte differentiation” value in the experiment on human primary monocytes (same-experiment comparison, added only one time, CSF-1 2 days) is 1.5 to 2.5 µM. In addition, the “concentration sufficient to abrogate Annexin V staining” value in experiment [1] is 2 µM. For the same compound, on caspase 3, the IC50 is around 500 nM and the “concentration of maximal inhibition of caspase-3” value was 10 µM.

Take `CC(C)[C@H](NC(=O)c1ccc2ccccc2n1)C(=O)N[C@@H](CC(=O)O)C(=O)COc1c(F)cccc1F` [Q-VD-OPh]: in the experiment with human primary monocytes (added at day 0 only, inhibition weak compared to Emricasan), the “concentration range of dose-dependent inhibition of macrophagic differentiation” value was in the range of 75 to 125 µM. The “concentrations with significant inhibitory effect on monocyte differentiation” value with human primary monocytes (only when added twice (day 0 and day 1), several donors) was in the range of 100 to 125 µM. Also, in the experiment with human primary monocytes (same-experiment comparison, 2 successive treatments (days 0 and 1)), the “concentration necessary to achieve inhibition identical to Emricasan” value worked out at 100 µM. The “concentration sufficient to abrogate Annexin V staining” value in experiment [1] is at most 5 µM. Further, at caspase 3, the IC50 was around 500 nM and the “concentration of maximal inhibition of caspase-3” value was 10 µM.
